Source: patent publication US7498421B2, “Degradation fragments” (Medical Research Council, priority 2001, dated 2009)

What was measured:
[1] = Light sensitivity of purified fractions (sunlight, HPLC / 1H NMR); format: physicochemical; details: sunlight for 90 min
Procedure: The chloroform extract was dissolved in 50% (v/v) aqueous and purified by HPLC. Experiments were conducted so as to exclude light from samples. Hypersil reversed-phase C18 (250×7 mm) or Spherisorb ODS (2) reversed-phase columns (250×4.6 mm) were equilibrated with 30% (v/v) aqueous acetonitrile at a flow rate pf 2 mL min^−1 and 1 mL min^−1, respectively. Elution was performed using 30% to 36% aqueous acetonitrile linear gradient at the same flow rates over 8 min. Fractions were monitored at 320 nm and collected manually. The fractions were freeze dried and stored at −80° C. for further analyses. Each fraction was re-dissolved in 50% (v/v) aqueous acetonitrile, re-injected and re-purified using the same conditions to remove impurities from other fractions. To investigate the light sensitivity of the compounds, purified fractions were exposed to sunlight for 90 min after dissolving 50% (v/v) aqueous and analysed by HLPC.

[2] = Heat stability judged by HPLC; details: 60° C. for 2 h
porcine carotid artery = assay: Oxygen consumption of porcine carotid artery rings (Clark oxygen electrode); details: concentration of 4-methyl-3-vinylmaleimide not determined
Procedure: Porcine carotid artery were collected from an abattoir within 30 minutes of death, rinsed and immersed in PSS at 4° C., and immediately transported to the laboratory. Arteries were then trimmed of excess connective tissue and adventitia to be stored in PSS at 4° C. until use. The PSS was changed every 12 hours and the vessels were kept for up to 4 days. The PSS contained the following: 118 mmol/L sodium chloride, 25 mmol/L sodium hydrogen carbonate, 5.76 mmol/L potassium chloride, 2.5 mmol/L calcium chloride, 1.2 mmol/L magnesium sulphate, 0.5 mmol/L monobasic sodium phosphate, and 11.1 mmol/L glucose. The solution was oxygenated by bubbling with 95% oxygen and 5% carbon dioxide to maintain a pH of 7.4.
The rate of the oxygen consumption was determined using a Hansatech Instruments (Norfolk, United Kingdom) Clark oxygen electrode. Carotid artery rings approximately 0.2 cm long were vigorously rubbed to remove the endothelial cells and were added to the water-jacketed chambers containing PSS at 37° C. The rates of oxygen consumption were measured before and after the addition of crude mixture of the BR oxidative degradation products (final concentration 1 mg/mL of PSS), CSFSAH (final dilution 1/30) or 4-methyl-3-vinylmaleimide (purified on HPLC, freeze-dried and then re-dissolved in PSS). […]

[3] = tested on: porcine carotid artery rings; assay: Isometric force measurement on porcine carotid artery rings
Procedure: Isometric force measurement were performed on porcine carotid artery rings to assess functional parameters during exposure to various compounds. The methods used were those used by J F Clark et al., J. Vasc. Res., 1995, 32. 24-30. KCl induced contraction is used as maximal isometric tension generation and results are reported as percentage of KCl maxima obtained for each carotid.

Compound: C=CC1=C(C)C(=O)NC1=O [4-methyl-3-vinylmaleimide]
- intensity of HPLC peaks after exposure to sunlight [1]: significantly decreased
- heat stability [2]: relatively heat-stable
- stimulation of oxygen consumption (in words) (porcine carotid artery): stimulated oxygen consumption

Compound: CC(CCc1ccc(O)cc1)NCCc1ccc(O)c(O)c1 (centres unmarked) [dobutamine]
- effect of pre-treatment on tension development induced by ox-BR and CSF-SAH [3]: abrogated

Compound: C=CC1=C(C)C(=CC(N)=O)NC1=O [Box B, 3-methyl-5-oxo-4-vinyl-(1,5-dihydropyrrol-2-ylidene)acetamide]
- 1H NMR analysis after sunlight exposure [1]: degradation to a number of products
- intensity of HPLC peaks after exposure to sunlight [1]: significantly decreased

Compound: C=CC1=C(C)C(=O)NC1=CC(N)=O [Box A, 4-methyl-5-oxo-3-vinyl-(1,5-dihydropyrrol-2-ylidene)acetamide]
- 1H NMR analysis after sunlight exposure [1]: degradation to a number of products
- intensity of HPLC peaks after exposure to sunlight [1]: significantly decreased
